The source of these data is patent US5446045A, “Antiviral guanine analogs” (priority 1993, dated 1995).

Converted amounts (≈) assume the structure as drawn.

The test system of series [1] is viruses. The note with it: literature ref. 3; cited from earlier work.
The conditions of series [2]: literature ref. 3-7; cited from earlier work.
For series [3], the system named is viruses. The note with it: literature ref. 3; cited from earlier work. This is another data set of the same source.
The test system of series [4] is Herpes simplex virus type 1 (HSV1). Put plainly: Inhibition of HSV1 in Vero cells (CPE assay). Format: cell-based. The note with it: Human alphaherpesvirus 1, CPE scored 40 to 48 h post-infection. Here is the method:
(§1) Vero and MRC-5 cells were obtained from ATCC. Human foreskin fibroblast (HFF) and Vero cells were routinely grown in minimal essential medium (MEM) with Earle salts [MEM(E)]supplemented with 10% fetal bovine serum (FBS). MRC-5 cells were grown in Basal Medium Eagle (BME) with 10% FBS and 0.035% NaHCO3. Cells were passaged according to conventional procedures.^33 Human cytomegalovirus (HCMV) strains AD169 and Towne were obtained from the ATCC. Herpes simplex virus type i and type 2 (HSV1 and HSV2) are commercially available.
(§2) Vero cells were plated at 4×10^4 cells/well in a 96-well microtitre dish in 0.1 mL of MEM(E) with 10% FBS 24 h before infection with virus. The cells were incubated at 37° C. in a 5% CO2 atmosphere. The medium was then removed and 50 μL of media containing 30 to 50 PFU of virus was allowed to adsorb to the cells for 10 minutes at 37° C. The virus containing medium was then removed and the cells were rinsed 3 times with fresh media. A final 100 μL aliquot of fresh medium, containing the various dilutions of test compounds, was then added to each well and the plates were then incubated at 37° C. Plaques were observed 24 hr post-infection and the degree of cytopathic effect scored 40 to 48 h post-infection. Acyclovir was used as a standard in all ttSV assays.
(§3) I. The same compounds used in Example 31 were also assayed for their ability to inhibit herpes simplex viruses type 1 and type 2 in acute infection assays in culture.
(§4) III. The toxic effect of these compounds on actively dividing Vero cells is reported. For all values listed as >x, x is the highest concentration tested for the respective compound.
(§5) Vero cells were plated in a 96-well microtitre dish in 0.1 ml of MEM(E) with 10% FBS 24 hours before infection with virus. The medium will then be removed and 50 ul of media containing 30 to 50 PFU of virus were allowed to adsorb to the cells for 10 minutes at 37° C. The virus-containing medium will then be removed and the cells rinsed 3 times with fresh media. A final 100 ul aliquot of fresh medium, containing the various dilutions of test compounds, were added to each well and the plates incubated at 37° C. Plaques were observed 24 hours post-infection and the degree of cytopathic effect scored 40 to 48 hours-post infection. Acyclovir was used as a standard in all HSV assays.

A short description of series [5]: Visual cytotoxicity in stationary uninfected MRC-5 cells. The note with it: human, AD169/MRC5 system, visual observation of stationary uninfected MRC5 cells, read-out: TC50 (median toxic concentration). It is filed as cell-based. Here is the method: (§6) Stationary uninfected HFF and MRC-5 cells were evaluated for visual cytotoxicity on the scoring basis of 0 (no visual cytotoxicity at 20 fold magnification) to 4 (cell sheet nearly destroyed). Cytotoxicity as measured by inhibition of cell growth was performed in Vero cells using a CellTiter 96™ Aqueous Non-Radioactivity Cell Proliferation Assay (Promega). Cytotoxicity assays were performed using a 4 day incubation of test compound with Vero cells plated at 500 cells/well. Each assay was performed in quadruplicate. The resultant data are averaged, graphed and then used to calculate the TC50 (median toxic concentration) for the compound tested.
(§7) I. A series of guanine analogs containing an alkyl side chain in place of sugar moiety were evaluated for their ability to inhibit HCMV production in acute infection assays in culture and for cytotoxicity in HFF and MRC-5 cells.
(§8) III. Table 1 lists the median inhibitory concentration (IC50) for all compounds tested against HCMV strains AD169 or Towne. In addition this table lists the median toxic concentrations of these compounds (TC50) as determined by visual observation of uninfected cells treated with various concentrations of drug.

Series [6] can be described thus: Cytotoxicity (inhibition of cell growth) in actively dividing Vero cells, CellTiter 96 assay. It is filed as cell-based. The settings on record: african green monkey, 4 day incubation, read-out: Cytotoxicity (TC50). As for the experimental part:
as §1, §6
III. […] For all values listed as >x, x is the highest concentration tested for the respective compound.

For series [7], the system named is Human cytomegalovirus (HCMV) strain AD169. Kind of series: HCMV plaque reduction (cytopathic effect) assay, strain AD169 in MRC-5 cells. Format: cell-based. The note with it: Human betaherpesvirus 5, AD169/MRC5, read-out: IC50 (median inhibitory concentration). Here is the method: as §1
Two different plaque reduction assays were employed to determine the antiviral efficacy of the test compounds in culture. The first assay used MRC-5 cells and the AD169 strain of HCMV. The second assay used HFF cells and the Towne strain of HCMV. In experiments using MRC-5 cells the growth medium was removed from monolayer cultures in 24-well tissue culture plates. One mL of virus (AD169), diluted in test medium (Dulbecco's modified Eagle medium (DMEM), 2% FBS, 0.1% NaHCO3 and 50 ug gentamicin/mL) was used. The 24-well plates were centrifuged at 2200 rpm for 30 minutes at room temperature to allow the virus to adsorb. Medium was then aspirated from each well of the plates. The individual dilutions of each compound (prepared in test medium) were placed in each test well (0.8 mL/well, 4 wells/dilution). All plates were incubated at 37° C. in a moist atmosphere of 5% CO2. When virus plaques had formed in control cells (HCMV infected, untreated) the medium was aspirated from all wells, and the cells were stained by adding 0.3 mL of 0.2% crystal violet in 10% buffered formalin to each well. After 15 minutes, the stain was removed, cells were rinsed in tap water until the water was clear, and the plates were inverted and dried at room temperature. Plaques were counted by use of a dissecting microscope.
(§9) Ganciclovir was used as an anti-HCMV standard in all HCMV assays.
as §7, §8
Plaque reduction assays were employed to determine the antiviral efficacy of the test compounds in culture. MRC-5 cells and the AD169 strain of FICMV were used. Growth medium was removed from monolayer cultures in 24-well tissue culture plates. One ml of virus, diluted in test medium (Dulbecco's modified Eagle medium (DMEM), 2% FBS, 0.1% NaHCO3 and 50 ug gentamicin/ml). After infection and subsequent removal of the media, individual dilutions of each compound (prepared in test medium) were placed in each test well (0.8 ml/well, 4 wells/dilution) and plates incubated at 37° C. in a moist atmosphere of 5% CO2. When virus plaques have formed in control cells (HCMV infected, untreated) the medium was aspirated from all wells, and the cells stained by adding 0.3 ml of 0.2% crystal violate in 10% buffered formalin to each well. Plaques were counted by use of a dissecting microscope. Ganciclovir was used as an anti-HCMV standard in all HCMV assays.

Series [8] deals with Herpes simplex virus type 2 (HSV2). Put plainly: Inhibition of HSV2 in Vero cells (CPE assay). Format: cell-based. The note with it: Human alphaherpesvirus 2, CPE scored 40 to 48 h post-infection. Here is the method: as §1, §2, §3, §4, §5
Series [9] is described as follows: Visual cytotoxicity in stationary uninfected HFF cells. The note with it: human; Towne/HFF system; visual observation of stationary uninfected HFF cells; read-out: TC50 (median toxic concentration). Format: cell-based. As for the experimental part: as §1, §6, §7, §8
Series [10] relates to Human cytomegalovirus (HCMV) strain Towne. Put plainly: HCMV plaque reduction (cytopathic effect) assay, strain Towne in HFF cells. The settings on record: Human betaherpesvirus 5, HFF, read-out: IC50 (median inhibitory concentration). It is filed as cell-based. As for the experimental part: as §1
A similar set of experiments designed to monitor HCMV plaque reduction were performed with monolayer cultures of HFF and the Towne strain of HCMV using procedures similar to those reported by Turk et al.^34 Diploid HFF cells were plated 24 hr before use at approximately 1×10^5 cells/plate. These monolayer cultures were infected with 100 plaque forming units (PFU) of virus. The compounds to be assayed were dissolved in culture medium. Viral adsorption was allowed to proceed for 1 hr at which time virus containing medium was removed and replaced with medium containing the various dilutions of the test compounds. Plaques were counted using crystal violet as described above.
as §9, §7, §8
Background: Cytopathic effects are the visible damage that an infection or toxin causes in cultured cells.

The next series relates to DNA viruses. The settings on record: literature refs. 14-17; cited from earlier work.

In the case of `Nc1nc2c(sc(=O)n2[C@@H]2O[C@H](CO)[C@@H](O)[C@H]2O)c(=O)[nH]1` [7-thia-8-oxoguanosine], the “antiviral activity in vitro” value in the series with viruses [1] was “virtually inactive”. Moreover, the immunomodulatory activity result in series [2] is given as “demonstrated immunomodulatory activity”. Besides, the “antiviral activity in the host animal” value with viruses [3] is recorded as “broad spectrum of antiviral activity”.
Regarding `CCCCCCn1c(=O)sc2c(=O)[nH]c(N)nc21` [Compound R1132-30], the IC50 in series [4] was greater than 1.2 µg/mL; in [7] it was 0.45 µg/mL (≈ 1.68 µM); in series [8] it was greater than 1.2 µg/mL. For the same compound, the CC50 in series [5] came out at 1.2 µg/mL (≈ 4.47 µM). The CC50 at 96 h in series [6] was greater than 1 µg/mL.
As to `CCCCCn1c(=O)sc2c(=O)[nH]c(N)nc21` [Compound R1132-36], the figures for the CC50 in series [9] and in series [5] were 100 µg/mL (≈ 393 µM) and 4 µg/mL (≈ 15.7 µM), respectively. Besides, the IC50 in series [4] is greater than 5.1 µg/mL; in series [7], 0.2 µg/mL (≈ 0.786 µM); in series [8], greater than 5.1 µg/mL; in series [10], 17 µg/mL (≈ 66.8 µM). In addition, the CC50 at 96 h in [6] is greater than 5 µg/mL.
Take `CC(C)=CCn1c(=O)sc2c(=O)[nH]c(N)nc21` [Compound R1132-72, 5-Amino-3-(3-methylbut-2-ene-1-yl)thiazo lo[4,5-d]-pyrimidine-2,7(3H,6H)-dione]: the results for the CC50 in series [9] and in series [5] were 100 µg/mL (≈ 396 µM) and greater than 100 µg/mL, respectively. Moreover, the IC50 in series [4] worked out at 5.6 µg/mL (≈ 22.2 µM); in [7] it was 4 µg/mL (≈ 15.9 µM); in series [8], 5.6 µg/mL (≈ 22.2 µM); in series [10], 1.7 µg/mL (≈ 6.74 µM). Also, in series [6], the CC50 at 96 h was found to be 20 µg/mL (≈ 79.3 µM).
On to `CCCCC(CCCC)n1c(=O)sc2c(=O)[nH]c(N)nc21` [Compound R1132-73, 5-Amino-3-(nonan-5-yl)thiazolo[4,5-d]-pyrimidine-2,7(3H, 6H)-dione], for which the CC50 in series [9] amounted to 11.1 µg/mL (≈ 35.8 µM); in series [5] it was 178 µg/mL (≈ 573 µM). Moreover, the IC50 is greater than 2.2 µg/mL in [4], 9.4 µg/mL (≈ 30.3 µM) in series [7], greater than 2.2 µg/mL in series [8] and 4.7 µg/mL (≈ 15.1 µM) in series [10]. Besides, the CC50 at 96 h in series [6] is greater than 2.5 µg/mL.
On to `CCC=CCn1c(=O)sc2c(=O)[nH]c(N)nc21` [Compound R1132-74, 5-Amino-3-(pent-2-ene-1-yl)thiazolo[4,5-d]-pyrimidine-2,7(3H,6H)-dione], for which the CC50 in series [9] and in series [5] was greater than 100 µg/mL throughout. Further, the IC50 in series [4] is 0.53 µg/mL (≈ 2.1 µM); in [7], less than 1 µg/mL; in series [8], less than 0.27 µg/mL; in series [10], 0.14 µg/mL (≈ 0.555 µM). In addition, in series [6], the CC50 at 96 h was greater than 20 µg/mL.
Turning to `C=CCCCn1c(=O)sc2c(=O)[nH]c(N)nc21` [Compound R1132-75, 5-Amino-3-(pent-4-ene-1-yl)thiazolo[4,5-d]-pyrimidine-2,7(3H, 6H)-dione], the figures for the CC50 in [9] and in [5] were greater than 100 µg/mL and 68 µg/mL (≈ 270 µM), respectively. The IC50 worked out at 16.2 µg/mL (≈ 64.4 µM) in series [4], 9.4 µg/mL (≈ 37.3 µM) in [7], 8.1 µg/mL (≈ 32.1 µM) in series [8] and 12 µg/mL (≈ 47.6 µM) in series [10]. In addition, in series [6], the CC50 at 96 h was 45 µg/mL (≈ 178 µM).
With `CCC(CC)n1c(=O)sc2c(=O)[nH]c(N)nc21` [Compound R1132-76, 5-Amino-3-(pentan-3-yl)thiazolo[4,5-d]-pyrimidine-2,7(3H, 6 H)-dione], the results for the IC50 in [4], in series [7] and in [8] were greater than 21.7 µg/mL, greater than 100 µg/mL and 21.7 µg/mL (≈ 85.3 µM), respectively. Further, in series [5], the CC50 was determined as 32 µg/mL (≈ 126 µM). Further, the CC50 at 96 h in series [6] amounted to 56 µg/mL (≈ 220 µM).
As for `CCCCCC(CCCCC)n1c(=O)sc2c(=O)[nH]c(N)nc21` [Compound R1132-77, 5-Amino-3-(undecan-6-yl)thiazolo[4,5-d]-pyrimidine-2,7(3H,6H)-dione], in series [5], the CC50 worked out at 52 µg/mL (≈ 154 µM). The IC50 in series [7] came to 12 µg/mL (≈ 35.5 µM).
For `O=c1[nH]c(=O)n([C@@H]2O[C@H](CO)[C@@H](O)[C@@H]2F)cc1I` [FIAU, 1-(2-deoxy-2-fiuoro-β-D-arabinofuranosyl)-5-iodouracil], the “activity against several DNA viruses” value with DNA viruses is “potent agents against several DNA viruses”.
For `Cc1cn([C@@H]2O[C@H](CO)[C@@H](O)[C@@H]2F)c(=O)[nH]c1=O` [FMAU, 1-(2-deoxy-2-fiuoro-β-D-arabinofuranosyl)thymine], in the series with DNA viruses, the “activity against several DNA viruses” value is “potent agents against several DNA viruses”.
For the compound `Nc1nc2c(ncn2COC(CO)CO)c(=O)[nH]1` [Ganciclovir, 9-(1-hydroxymethyl-2-hydroxyethoxymethyl)guanine, reference compound], the CC50 in series [9] is greater than 100 µg/mL; in series [5], greater than 900 µg/mL. Moreover, the IC50 in series [7] was 2.1 µg/mL (≈ 8.23 µM); in series [10], 2.7 µg/mL (≈ 10.6 µM).
With `Nc1nc2c(ncn2COCCO)c(=O)[nH]1` [acyclovir, 9-(2-hydroxyethoxymethyl)guanine, reference compound], the IC50 in [4] and in series [8] was 0.2 µg/mL (≈ 0.888 µM) each time. Also, in [6], the CC50 at 96 h was greater than 100 µg/mL.
